The subject of experiment [1] is velvetleaf. Description: Preemergent control of plant species. It counts as in vivo, Abutilon theophrasti. Conditions: Abutilon theophrasti, pre-emergence, 336 h; 0.25 lb/acre; read-out: percent preemergent control. In outline: (§1)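 Seeds sown in agricultural soil beds in a greenhouse received aqueous emulsions of test compositions applied uniformly over the bed surface at the listed rates; water-treated beds served as control. After two weeks under greenhouse growth conditions, control was scored as growth reduction versus untreated plants of the same species.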

For experiment [2], the system named is soybean. Description: Preemergent control of plant species. Conditions: Glycine max, pre-emergence, 336 h; 0.25 lb/acre; read-out: percent preemergent control. Format: in vivo, Glycine max. In outline:
as §1

Experiment [3] relates to wild oats. Description: Preemergent control of plant species. It counts as in vivo. Particulars: Avena fatua, pre-emergence, 336 h; 0.25 lb/acre; read-out: percent preemergent control. In outline: as §1
Experiment [4] concerns yellow foxtail. Nature of the experiment: Preemergent control of plant species. Conditions: Setaria, pre-emergence, 336 h; 0.25 lb/acre; read-out: percent preemergent control. Format: in vivo, Setaria lutescens. In outline: as §1
Experiment [5] concerns corn. Description: Preemergent control of plant species. Format: in vivo, Zea mays. Conditions: Zea mays, pre-emergence, 336 h; 0.25 lb/acre; read-out: percent preemergent control. The method in brief:
as §1

The subject of experiment [6] is wheat. Nature of the experiment: Preemergent control of plant species. Format: in vivo, Triticum aestivum. Particulars: Triticum aestivum, pre-emergence, 336 h; 0.25 lb/acre; read-out: percent preemergent control. The method in brief:
as §1

Experiment [7] concerns barnyardgrass. Nature of the experiment: Preemergent control of plant species. Format: in vivo, Echinochloa crusgalli. Conditions: Echinochloa crus-galli, pre-emergence, 336 h; 0.25 lb/acre; read-out: percent preemergent control. In outline:
as §1

For experiment [8], the system named is sugar beet. Nature of the experiment: Preemergent control of plant species. Conditions: Beta vulgaris, pre-emergence, 336 h; 0.25 lb/acre; read-out: percent preemergent control. Format: in vivo, Beta saccharifera. In outline: as §1
For experiment [9], the system named is cotton. Nature of the experiment: Preemergent control of plant species. Format: in vivo, Gossypium spp. Particulars: Gossypium hirsutum, pre-emergence, 336 h; 0.25 lb/acre; read-out: percent preemergent control. The method in brief: as §1
Experiment [10] relates to sorghum. Description: Preemergent control of plant species. Format: in vivo, Sorghum vulgare. Particulars: Sorghum, pre-emergence, 336 h; 0.25 lb/acre; read-out: percent preemergent control. In outline: as §1
Experiment [11] relates to jimsonweed. Description: Preemergent control of plant species. It counts as in vivo, Datura stramonium. Particulars: Datura stramonium, pre-emergence, 336 h; 0.25 lb/acre; read-out: percent preemergent control. In outline: as §1
The subject of experiment [12] is rape. Description: Preemergent control of plant species. It counts as in vivo, Brassica napus. Conditions: Brassica napus, pre-emergence, 336 h; 0.25 lb/acre; read-out: percent preemergent control. The method in brief: as §1
The subject of experiment [13] is nitrification of ammonium nitrogen. Description: Suppression of nitrification of ammonium nitrogen in soil. Conditions: 27° C. In outline: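 Value is % NH4-N remaining after a two-week, 27° C incubation of treated soil held at 1/3 bar tension moisture. Nitrate was measured with an ion-selective electrode after extraction with ammonium sulfate solution and 10 min shaking.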

Experiment [14] has as its system annual morning glory. Nature of the experiment: Preemergent control of plant species. It counts as in vivo, Ipomoea spp. Particulars: Ipomoea, pre-emergence, 336 h; 0.25 lb/acre; read-out: percent preemergent control. In outline:
as §1

For experiment [15], the system named is johnson grass. Nature of the experiment: Preemergent control of plant species. It counts as in vivo, Sorghum halepense. Conditions: Sorghum halepense, pre-emergence, 336 h; 0.25 lb/acre; read-out: percent preemergent control. In outline: as §1
Experiment [16] deals with yellow nutsedge. Description: Preemergent control of plant species. Format: in vivo, Cyperus esculentus. Particulars: Cyperus, pre-emergence, 336 h; 0.25 lb/acre; read-out: percent preemergent control. The method in brief:
as §1

Experiment [17] deals with rice. Nature of the experiment: Preemergent control of plant species. Format: in vivo, Oryza sativa. Conditions: Oryza sativa, pre-emergence, 336 h; 0.25 lb/acre; read-out: percent preemergent control. In outline:
as §1

For experiment [18], the system named is yellow foxtail. Description: Postemergent control of plant species. Conditions: Setaria, post-emergence, 336 h, read-out: percent postemergent control. It counts as in vivo, Setaria lutescens. As to the method: (§2) In representative operations, each compound to be utilized in a series of tests is dissolved in acetone to one-half of the final volume (twice the final concentration) to be used and the acetone solution in each case is admixed with an equal volume of water containing 0.1 percent by weight of surface active material. The compositions, generally in the nature of an emulsion, were employed to spray separate respective plant species which had been grown to a 2-4 leaf stage in soil of good nutrient content in a greenhouse. The various beds were positioned side by side and exposed to substantially identical conditions of temperature and light. Each bed was maintained so as to prevent any interaction with test compounds in different seed beds. Other plants were left untreated to serve as controls. After treatment, the plants were maintained for about two weeks under greenhouse conditions conducive for good plant growth and watered as necessary. Control refers to the reduction in growth compared to the observed results of the same untreated species.

For experiment [19], the system named is barnyardgrass. Description: Postemergent control of plant species. Particulars: Echinochloa crus-galli, post-emergence, 336 h, read-out: percent postemergent control. Format: in vivo, Echinochloa crusgalli. As to the method:
as §2

Experiment [20] concerns jimsonweed. Nature of the experiment: Postemergent control of plant species. Format: in vivo, Datura stramonium. Conditions: Datura stramonium, post-emergence, 336 h, read-out: percent postemergent control. As to the method: as §2
Experiment [21] relates to corn. Description: Postemergent control of plant species. Format: in vivo, Zea mays. Particulars: Zea mays, post-emergence, 336 h, read-out: percent postemergent control. As to the method: as §2
In experiment [22] the test system is sorghum. Nature of the experiment: Postemergent control of plant species. It counts as in vivo, Sorghum vulgare. Particulars: Sorghum, post-emergence, 336 h, read-out: percent postemergent control. As to the method: as §2
Experiment [23] relates to rice. Nature of the experiment: Postemergent control of plant species. Conditions: Oryza sativa, post-emergence, 336 h, read-out: percent postemergent control. It counts as in vivo, Oryza sativa. As to the method: as §2
In the next experiment the test system is crabgrass. Nature of the experiment: Postemergent control of plant species. It counts as in vivo, Digitaria spp. Conditions: Digitaria sanguinalis, post-emergence, 336 h, read-out: percent postemergent control. As to the method: as §2
A further experiment has as its system pigweed. Nature of the experiment: Postemergent control of plant species. It counts as in vivo, Amaranthus spp. Conditions: Amaranthus retroflexus, post-emergence, 336 h, read-out: percent postemergent control. As to the method:
as §2

Experiment [24] has as its system wild oats. Nature of the experiment: Postemergent control of plant species. Format: in vivo, Avena fatua. Particulars: Avena fatua, post-emergence, 336 h, read-out: percent postemergent control. As to the method:
as §2

Experiment [25] relates to annual morning glory. Description: Postemergent control of plant species. It counts as in vivo, Ipomoea spp. Conditions: Ipomoea, post-emergence, 336 h, read-out: percent postemergent control. As to the method: as §2
Experiment [26] deals with sugar beet. Description: Postemergent control of plant species. Format: in vivo, Beta saccharifera. Conditions: Beta vulgaris, post-emergence, 336 h, read-out: percent postemergent control. As to the method: as §2
Experiment [27] has as its system soybean. Description: Postemergent control of plant species. Format: in vivo, Glycine max. Conditions: Glycine max, post-emergence, 336 h, read-out: percent postemergent control. As to the method: as §2
Experiment [28] relates to yellow nutsedge. Description: Postemergent control of plant species. It counts as in vivo, Cyperus esculentus. Conditions: Cyperus, post-emergence, 336 h, read-out: percent postemergent control. As to the method: as §2
Experiment [29] has as its system wheat. Nature of the experiment: Postemergent control of plant species. Format: in vivo, Triticum aestivum. Conditions: Triticum aestivum, post-emergence, 336 h, read-out: percent postemergent control. As to the method: as §2
The test system of experiment [30] is johnson grass. Nature of the experiment: Postemergent control of plant species. It counts as in vivo, Sorghum halepense. Conditions: Sorghum halepense, post-emergence, 336 h, read-out: percent postemergent control. As to the method: as §2
For experiment [31], the system named is rape. Nature of the experiment: Postemergent control of plant species. It counts as in vivo, Brassica napus. Particulars: Brassica napus, post-emergence, 336 h, read-out: percent postemergent control. As to the method: as §2
For experiment [32], the system named is cotton. Nature of the experiment: Postemergent control of plant species. Particulars: Gossypium hirsutum, post-emergence, 336 h, read-out: percent postemergent control. Format: in vivo, Gossypium spp. As to the method: as §2
For experiment [33], the system named is velvetleaf. Nature of the experiment: Postemergent control of plant species. It counts as in vivo, Abutilon theophrasti. Conditions: Abutilon theophrasti, post-emergence, 336 h, read-out: percent postemergent control. As to the method: as §2

For `C=CCOC(=O)c1cccc(C)c1NS(=O)(=O)c1nc2nc(C)cc(C)n2n1` [Compound 76], the pest or weed control at 280.212 g/ha in the experiment with velvetleaf [1] was 100%; in the experiment with wild oats [3], 90%; in the experiment on yellow foxtail [4], 90%; in the experiment on barnyardgrass [7], 70%; in the experiment with jimsonweed [11], 100%; in the experiment with annual morning glory [14], 90%. Moreover, the pest or weed control at 280.212 g/ha in the experiment with johnson grass [15] worked out at 80%; in the experiment with yellow nutsedge [16] it was 100%. Moreover, the plant injury at 280.212 g/ha with soybean [2] was determined as 95%; in the experiment with corn [5], 100%; with wheat [6] it was 100%; in the experiment with sugar beet [8] it was 100%; in the experiment with cotton [9] it was 60%; in the experiment with sorghum [10] it was 90%. The plant injury at 280.212 g/ha in the experiment with rape [12] was determined as 100%; in the experiment on rice [17], 70%. Also, the “% NH4-N Remaining After 2 Weeks Incubation” value in [13] (0.06 ppm) stood at 34%; in experiment [13] (0.25 ppm), 52%; in [13] (1 ppm), 74%; in experiment [13] (4 ppm), 86%.

Consider `CSc1cccc(Cl)c1NS(=O)(=O)c1nc2nc(C)cc(C)n2n1` [Compound 69], for which the pest or weed control at 500 ppm with yellow foxtail [18] is 90%; with barnyardgrass [19], 80%; in the experiment with jimsonweed [20], 90%; with crabgrass, 80%; in the experiment with pigweed it was 100%; with wild oats [24], 0%. Besides, the pest or weed control at 500 ppm was 80% in the experiment on annual morning glory [25], 80% with yellow nutsedge [28], 95% with johnson grass [30] and 85% with velvetleaf [33]. Also, the plant injury at 500 ppm turned out to be 90% in the experiment with corn [21]; 80% in the experiment on sorghum [22]; 0% with rice [23]; 100% in the experiment with sugar beet [26]; 40% with soybean [27]; 0% in the experiment on wheat [29]. Also, the plant injury at 500 ppm with rape [31] and with cotton [32] was 90% in each case.

As to `CC(C)=NOC(=O)c1cccc(C)c1NS(=O)(=O)c1nc2nc(C)cc(C)n2n1` [Compound 78], the pest or weed control at 280.212 g/ha with velvetleaf [1] was determined as 30%; with wild oats [3], 30%; with yellow foxtail [4] it was 20%; with barnyardgrass [7] it was 20%; in the experiment on jimsonweed [11], 0%; in the experiment with annual morning glory [14], 0%. Moreover, the pest or weed control at 280.212 g/ha amounted to 0% in the experiment on johnson grass [15] and 50% in the experiment on yellow nutsedge [16]. Also, the plant injury at 280.212 g/ha with soybean [2] amounted to 30%; in the experiment on corn [5] it was 10%; with wheat [6], 40%; in the experiment with sugar beet [8], 70%; in the experiment on cotton [9], 0%; in the experiment on sorghum [10], 0%. In addition, the results for the plant injury at 280.212 g/ha in the experiment with rape [12] and in the experiment with rice [17] were 100% and 40%, respectively. The “% NH4-N Remaining After 2 Weeks Incubation” value in experiment [13] (0.06 ppm) worked out at 74%; in experiment [13] (0.25 ppm), 32%; in experiment [13] (1 ppm) it was 53%; in experiment [13] (4 ppm), 72%.

In the case of `COc1ccn2nc(S(=O)(=O)Nc3c(Cl)cccc3Cl)nc2n1` [Compound 208], the pest or weed control at 280.212 g/ha was determined as 90% in the experiment with velvetleaf [1]; 0% with wild oats [3]; 0% with yellow foxtail [4]; 0% with barnyardgrass [7]; 90% in the experiment on jimsonweed [11]; 40% in the experiment with annual morning glory [14]. The values for the pest or weed control at 280.212 g/ha in the experiment on johnson grass [15] and in the experiment on yellow nutsedge [16] were 0% and 60%, respectively. The plant injury at 280.212 g/ha in the experiment with soybean [2] stood at 45%; with corn [5] it was 0%; with wheat [6], 0%; in the experiment with sugar beet [8], 100%; in the experiment on cotton [9] it was 100%; in the experiment on sorghum [10], 30%. Also, the plant injury at 280.212 g/ha was 100% in the experiment on rape [12] and 0% with rice [17]. For the same molecule, the “% NH4-N Remaining After 2 Weeks Incubation” value in [13] (0.06 ppm) is listed as 38%; in experiment [13] (0.25 ppm) it was 38%; in experiment [13] (1 ppm), 42%; in [13] (4 ppm), 37%.

(Values after patent US4740233A, “Substituted 1,2,4-triazolo[1,5-a]-pyrimidine-2-sulfonamides and compositions and methods of controlling undesired vegetation and suppressing the nitrification of ammonium nitrogen in soil” (The Dow Chemical Company, priority 1986, dated 1988).)
